Source: patent US20250313535A1, “ALPHA 4 BETA 7 INTEGRIN MODULATORS AND USES THEREOF” (DICE MOLECULES SV, INC., priority 2022, published 2025)
pIC50: −log10 of the molar value.

How the values were obtained:
α4β1 integrin = α4β1 integrin (Homo sapiens (Human), UniProt P05556+P13612); experiment: Integrin Adhesion Assay: Protocol 5 (VCAM-coated plate, RPMI-8866 cells with stable LOF mutation of the ITGB7 gene); assay type: cell-based; conditions: Protocol 5; RPMI-8866 cells with LOF mutation of ITGB7, VCAM; read-out: Mean IC50 α4β1 KO
Chain of α4β1 integrin (P13612 34-1032): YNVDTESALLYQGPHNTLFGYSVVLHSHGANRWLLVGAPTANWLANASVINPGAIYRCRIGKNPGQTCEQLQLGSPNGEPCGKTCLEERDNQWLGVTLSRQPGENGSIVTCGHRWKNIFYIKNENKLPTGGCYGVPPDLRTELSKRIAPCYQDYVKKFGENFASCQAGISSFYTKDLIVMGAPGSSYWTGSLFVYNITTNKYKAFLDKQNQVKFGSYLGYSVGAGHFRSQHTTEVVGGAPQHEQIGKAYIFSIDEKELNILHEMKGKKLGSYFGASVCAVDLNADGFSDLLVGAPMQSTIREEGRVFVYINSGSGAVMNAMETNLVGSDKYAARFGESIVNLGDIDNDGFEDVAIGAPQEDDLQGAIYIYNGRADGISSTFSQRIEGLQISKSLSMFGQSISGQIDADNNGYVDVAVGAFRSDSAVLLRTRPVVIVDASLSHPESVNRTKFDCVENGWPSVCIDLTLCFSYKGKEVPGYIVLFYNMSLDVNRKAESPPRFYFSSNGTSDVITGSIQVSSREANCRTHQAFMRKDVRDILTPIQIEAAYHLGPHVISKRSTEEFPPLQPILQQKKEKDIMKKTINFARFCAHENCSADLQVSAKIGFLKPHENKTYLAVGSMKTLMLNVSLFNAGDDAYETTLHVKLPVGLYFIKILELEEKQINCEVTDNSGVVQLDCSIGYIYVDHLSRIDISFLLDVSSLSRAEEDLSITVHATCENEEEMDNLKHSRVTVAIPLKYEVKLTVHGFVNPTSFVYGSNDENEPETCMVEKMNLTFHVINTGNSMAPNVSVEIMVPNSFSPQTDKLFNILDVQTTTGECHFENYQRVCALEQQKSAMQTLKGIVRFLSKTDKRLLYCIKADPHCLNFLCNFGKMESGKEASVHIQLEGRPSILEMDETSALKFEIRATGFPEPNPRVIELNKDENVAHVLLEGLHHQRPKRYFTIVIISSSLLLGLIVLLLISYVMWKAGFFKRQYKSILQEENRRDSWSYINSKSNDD
Chain of α4β1 integrin (P05556 21-798): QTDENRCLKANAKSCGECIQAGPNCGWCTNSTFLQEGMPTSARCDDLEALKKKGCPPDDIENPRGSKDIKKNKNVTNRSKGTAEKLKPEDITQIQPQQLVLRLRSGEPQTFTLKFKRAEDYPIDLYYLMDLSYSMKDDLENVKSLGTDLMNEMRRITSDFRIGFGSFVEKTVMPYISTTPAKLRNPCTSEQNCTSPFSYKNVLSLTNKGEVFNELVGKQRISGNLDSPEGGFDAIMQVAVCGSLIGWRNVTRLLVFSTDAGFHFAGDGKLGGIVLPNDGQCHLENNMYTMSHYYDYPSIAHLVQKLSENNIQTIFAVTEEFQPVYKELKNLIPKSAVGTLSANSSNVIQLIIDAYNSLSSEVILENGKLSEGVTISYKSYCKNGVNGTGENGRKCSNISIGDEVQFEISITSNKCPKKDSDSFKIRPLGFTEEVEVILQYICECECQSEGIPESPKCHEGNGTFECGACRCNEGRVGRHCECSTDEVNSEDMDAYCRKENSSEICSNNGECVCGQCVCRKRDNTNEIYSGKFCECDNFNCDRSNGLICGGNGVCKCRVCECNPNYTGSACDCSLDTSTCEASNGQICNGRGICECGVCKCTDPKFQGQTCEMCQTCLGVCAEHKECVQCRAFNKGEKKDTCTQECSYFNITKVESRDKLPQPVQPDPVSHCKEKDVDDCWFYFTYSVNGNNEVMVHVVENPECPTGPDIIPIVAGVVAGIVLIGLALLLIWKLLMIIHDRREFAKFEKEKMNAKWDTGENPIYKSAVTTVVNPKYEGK
How it was run: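 RPMI-8866 B cells with CRISPR/Cas9 ITGB7 knockout (clonal, verified by flow cytometry) adhered to VCAM-coated wells for 1 h at 37° C in HEPES/NaCl buffer with 1 mM MnCl2, 0.1 mM CaCl2, 1% BSA, 1% DMSO. Bound cells quantified by CellTiter-Glo luminescence after washing; % inhibition versus DMSO and control, 4-parameter fit.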

α4β7 integrin = α4β7 integrin (Homo sapiens (Human), UniProt P13612+P26010); experiment: Integrin Adhesion Assay: Protocol 4 (MAdCAM-coated plate, RPMI-8866 cells with stable LOF mutation of the ITGB1 gene); assay type: cell-based; conditions: Protocol 4; RPMI-8866 cells with LOF mutation of ITGB1, MAdCAM; read-out: Mean IC50 α4β7 KO
Chain of α4β7 integrin (P13612 34-1032): as the sequence (P13612 34-1032) above
Chain of α4β7 integrin (P26010 20-798): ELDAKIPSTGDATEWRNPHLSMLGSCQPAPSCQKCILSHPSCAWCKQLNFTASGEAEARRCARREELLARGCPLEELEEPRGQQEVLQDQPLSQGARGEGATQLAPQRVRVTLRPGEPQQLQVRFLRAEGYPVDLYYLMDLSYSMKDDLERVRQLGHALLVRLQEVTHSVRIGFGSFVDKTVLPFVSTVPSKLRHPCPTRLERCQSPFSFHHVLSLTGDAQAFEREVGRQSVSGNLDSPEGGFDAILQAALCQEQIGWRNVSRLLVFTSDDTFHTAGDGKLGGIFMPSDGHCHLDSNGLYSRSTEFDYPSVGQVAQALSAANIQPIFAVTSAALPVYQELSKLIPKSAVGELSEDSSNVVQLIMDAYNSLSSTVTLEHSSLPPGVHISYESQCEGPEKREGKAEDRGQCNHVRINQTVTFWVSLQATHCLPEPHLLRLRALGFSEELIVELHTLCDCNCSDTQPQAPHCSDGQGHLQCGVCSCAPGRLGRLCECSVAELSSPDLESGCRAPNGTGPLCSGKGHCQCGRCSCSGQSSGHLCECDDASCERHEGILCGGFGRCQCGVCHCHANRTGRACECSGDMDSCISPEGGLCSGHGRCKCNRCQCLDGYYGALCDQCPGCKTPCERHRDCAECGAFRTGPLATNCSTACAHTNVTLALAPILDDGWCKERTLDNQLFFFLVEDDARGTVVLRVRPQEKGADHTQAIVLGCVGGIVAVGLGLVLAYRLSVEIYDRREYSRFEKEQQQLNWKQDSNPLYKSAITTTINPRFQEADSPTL
How it was run: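 RPMI-8866 cells with CRISPR/Cas9 knockout of ITGB1 (2×10^6/mL) were added to MAdCAM-coated wells with compound (1% DMSO) in HEPES/NaCl buffer with 1 mM MnCl2, 0.1 mM CaCl2 and 1% BSA, then incubated 1 h at 37 °C. After four washes, adherent cells were quantified by CellTiter-Glo luminescence. Percent inhibition versus DMSO and control compound was fitted to 4-parameter curves.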

Row | pIC50 (α4β1 integrin) | pIC50 (α4β7 integrin) | SMILES
1 | 6.00 to 7.00 | > 8.00 | COc1ccc2c(c1-c1cccc3c(C[C@H](NC(=O)c4c(C)cccc4F)C(=O)O)cccc13)CCN(C)C2 [Compound 998]
2 | 6.00 to 7.00 | > 8.00 | COc1cccc(OCCN2CCCCC2)c1-c1cccc2c(C[C@H](NC(=O)c3c(C)cccc3F)C(=O)O)cccc12 [Compound 999]
3 | 6.00 to 7.00 | > 8.00 | CCOCc1cc(CN2CCCCC2)c(-c2cccc3c(C[C@H](NC(=O)c4c(C)cccc4F)C(=O)O)cccc23)c(OC)c1 [Compound 1000]
4 | < 6.00 | 7.00 to 8.00 | COc1ccc(CCN2CCCCC2)cc1-c1cccc2c(C[C@H](NC(=O)c3c(C)cccc3F)C(=O)O)cccc12 [Compound 1001]
5 | < 6.00 | 6.00 to 7.00 | Cc1cccc(F)c1C(=O)N[C@@H](Cc1cccc2c(-c3cccc4c3OCC4)cccc12)C(=O)O [Compound 1002]
6 | < 6.00 | 7.00 to 8.00 | COc1ccc2c(c1-c1cccc3c(C[C@H](NC(=O)c4c(C)cccc4F)C(=O)O)cccc13)CCN(CC(F)F)C2 [Compound 1003]
7 | 6.00 to 7.00 | > 8.00 | COc1ccc(CCN2CCCCC2)c(C(F)(F)F)c1-c1cccc2c(C[C@H](NC(=O)c3c(C)cccc3F)C(=O)O)cccc12 [Compound 1004]
8 | < 6.00 | 7.00 to 8.00 | COc1cc(CN2CCC(C)(C)CC2)cnc1-c1cccc2c(C[C@H](NC(=O)c3c(C)cccc3F)C(=O)O)cccc12 [Compound 1005]
9 | 6.00 to 7.00 | 7.00 to 8.00 | COc1cc2c(cc1-c1cccc3c(C[C@H](NC(=O)c4c(C)cccc4F)C(=O)O)cccc13)CN(CC(F)F)CC2 [Compound 1006]
10 | 6.00 to 7.00 | > 8.00 | CCOCc1cc(OC)c(-c2cccc3c(C[C@H](NC(=O)c4c(C)cccc4F)C(=O)O)cccc23)cc1CN1CCCCC1 [Compound 1008]
11 | < 6.00 | > 8.00 | COc1cc(C(F)(F)F)cc(CN2CCCCC2)c1-c1cccc2c(C[C@H](NC(=O)c3c(C)cccc3F)C(=O)O)cccc12 [Compound 1009]
12 | < 6.00 | > 8.00 | COc1c(CN(C)C)ccc(Cl)c1-c1cccc2c(C[C@H](NC(=O)c3c(C)cccc3F)C(=O)O)cccc12 [Compound 1011]
13 | < 6.00 | > 8.00 | COc1ccc(CN2CCCC(F)C2)c(OC)c1-c1cccc2c(C[C@H](NC(=O)c3c(C)cccc3F)C(=O)O)cccc12 (stereo partly drawn) [Compound 1012]
14 | 6.00 to 7.00 | > 8.00 | COc1c(CN2CCCCC2)ccc(Cl)c1-c1cccc2c(C[C@H](NC(=O)c3c(C)cccc3F)C(=O)O)cccc12 [Compound 1013]
15 | 6.00 to 7.00 | > 8.00 | COc1cccc(CN2CCCCC2)c1-c1cccc2c(C[C@H](NC(=O)c3c(C)cccc3F)C(=O)O)cccc12 [Compound 1014]
16 | 6.00 to 7.00 | > 8.00 | COc1cccc(CN2CCCC(F)C2)c1-c1cccc2c(C[C@H](NC(=O)c3c(C)cccc3F)C(=O)O)cccc12 (stereo partly drawn) [Compound 1015]
17 | 6.00 to 7.00 | > 8.00 | COc1ccc(CN2CCCCC2)nc1-c1cccc2c(C[C@H](NC(=O)c3c(C)cccc3F)C(=O)O)cccc12 [Compound 1016]
18 | 6.00 to 7.00 | > 8.00 | COc1cccc(CN2CCC(C)(C)CC2)c1-c1cccc2c(C[C@H](NC(=O)c3c(C)cccc3F)C(=O)O)cccc12 [Compound 1017]
19 | < 6.00 | > 8.00 | COc1cc(CN2CCCCC2)cnc1-c1cccc2c(C[C@H](NC(=O)c3c(C)cccc3F)C(=O)O)cccc12 [Compound 1018]
20 | 6.00 to 7.00 | > 8.00 | COc1cc(CN2CCCCC2)cc(OC)c1-c1cccc2c(C[C@H](NC(=O)c3c(C)cccc3F)C(=O)O)cccc12 [Compound 1019]

Row | pIC50 (α4β1 integrin) | pIC50 (α4β7 integrin) | SMILES
21 | < 6.00 | 7.00 to 8.00 | COc1c(CN2CCCCC2)ccnc1-c1cccc2c(C[C@H](NC(=O)c3c(C)cccc3F)C(=O)O)cccc12 [Compound 1020]
22 | < 6.00 | 7.00 to 8.00 | Cc1cccc(F)c1C(=O)N[C@@H](Cc1cccc2c(-c3ncccc3CN3CCCCC3)cccc12)C(=O)O [Compound 1021]
23 | 6.00 to 7.00 | > 8.00 | COc1cc(CN2CCCCC2)cc(C(F)(F)F)c1-c1cccc2c(C[C@H](NC(=O)c3c(C)cccc3F)C(=O)O)cccc12 [Compound 1023]
24 | < 6.00 | 7.00 to 8.00 | COc1cccc(CN2CCC(F)CC2)c1-c1cccc2c(C[C@H](NC(=O)c3c(C)cccc3F)C(=O)O)cccc12 [Compound 1024]
25 | < 6.00 | 7.00 to 8.00 | COc1cc(C(F)(F)F)c(CN2CCCCC2)cc1-c1cccc2c(C[C@H](NC(=O)c3c(C)cccc3F)C(=O)O)cccc12 [Compound 1025]
26 | < 6.00 | 7.00 to 8.00 | COc1cccc(CN2CCC(C(F)(F)F)CC2)c1-c1cccc2c(C[C@H](NC(=O)c3c(C)cccc3F)C(=O)O)cccc12 [Compound 1026]
27 | 6.00 to 7.00 | > 8.00 | COc1cccc(CN2CCC(C(C)(C)C)CC2)c1-c1cccc2c(C[C@H](NC(=O)c3c(C)cccc3F)C(=O)O)cccc12 [Compound 1027]
28 | < 6.00 | 7.00 to 8.00 | COc1cccc(CN2CC3CCC(C2)O3)c1-c1cccc2c(C[C@H](NC(=O)c3c(C)cccc3F)C(=O)O)cccc12 [Compound 1028]
29 | 7.00 to 8.00 | > 8.00 | CC(C)c1cccc(F)c1C(=O)N[C@@H](Cc1cccc2c(-c3c(C(F)(F)F)c4cc(CN5CCCCC5)ccc4n(C)c3=O)cccc12)C(=O)O [Compound 1029]
30 | 6.00 to 7.00 | > 8.00 | Cc1cccc(F)c1C(=O)N[C@@H](Cc1cccc2c(-c3c(C(F)(F)F)c4cc(CN5CCCCC5)ccc4n(C)c3=O)cccc12)C(=O)O [Compound 1030]
31 | 6.00 to 7.00 | > 8.00 | COc1cccc(CCN2CCC(C)(C)CC2)c1-c1cccc2c(C[C@H](NC(=O)c3c(C)cccc3F)C(=O)O)cccc12 [Compound 1033]
32 | < 6.00 | 7.00 to 8.00 | COc1cccc(CCN2CCC(F)(F)CC2)c1-c1cccc2c(C[C@H](NC(=O)c3c(C)cccc3F)C(=O)O)cccc12 [Compound 1034]
33 | < 6.00 | 7.00 to 8.00 | COc1cccc(CCN2CCC(F)CC2)c1-c1cccc2c(C[C@H](NC(=O)c3c(C)cccc3F)C(=O)O)cccc12 [Compound 1035]
34 | < 6.00 | > 8.00 | COc1cccc(CCN2CCC[C@@H](F)C2)c1-c1cccc2c(C[C@H](NC(=O)c3c(C)cccc3F)C(=O)O)cccc12 [Compound 1036]
35 | < 6.00 | > 8.00 | COc1cccc(CCN2CCC[C@H](F)C2)c1-c1cccc2c(C[C@H](NC(=O)c3c(C)cccc3F)C(=O)O)cccc12 [Compound 1037]
36 | 6.00 to 7.00 | > 8.00 | COc1ccc(CN(C)C)c(Cl)c1-c1cccc2c(C[C@H](NC(=O)c3c(C)cccc3F)C(=O)O)cccc12 [Compound 1038]
37 | < 6.00 | > 8.00 | COc1cnc(CN2CCC3(CCCCC3)CC2)c(OC)c1-c1cccc2c(C[C@H](NC(=O)c3c(C)cccc3F)C(=O)O)cccc12 [Compound 1039]
38 | < 6.00 | 6.00 to 7.00 | COCc1ccc2c(c1)c(C(F)(F)F)c(-c1cccc3c(CC(NC(=O)c4c(F)cccc4F)C(=O)O)cccc13)c(=O)n2C (stereo not drawn) [Compound 1041]
39 | 6.00 to 7.00 | > 8.00 | CN(C)CCc1cccc2c(-c3cccc4c(C[C@H](NC(=O)C5(C(F)(F)F)CCN(CC(F)(F)F)CC5)C(=O)O)cccc34)nccc12 [Compound 1042]
